Data published in PubChem BioAssay (NCI).
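These data come from cells grown in 96-well plates and exposed to compound for 48 hours at five concentrations. The concentration for 50% growth inhibition is given as GI50. The concentration for full growth arrest is given as TGI.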

What was measured:
Test in all cases: NCI tumour cell line growth inhibition, 48 h
HCT-15 colon = system: HCT-15 colon
MALME-3M melanoma = system: MALME-3M melanoma
MOLT-4 leukemia = system: MOLT-4 leukemia
RPMI-8226 leukemia = system: RPMI-8226 leukemia
SK-MEL-28 melanoma = system: SK-MEL-28 melanoma
SR leukemia = system: SR leukemia
UACC-62 melanoma = system: UACC-62 melanoma
SK-MEL-2 melanoma = system: SK-MEL-2 melanoma
DU-145 prostate = system: DU-145 prostate
PC-3 prostate = system: PC-3 prostate

| SMILES | TGI (HCT-15 colon) | TGI (MALME-3M melanoma) | TGI (MOLT-4 leukemia) | TGI (RPMI-8226 leukemia) | TGI (SK-MEL-28 melanoma) | TGI (SR leukemia) | TGI (UACC-62 melanoma) | TGI (SK-MEL-2 melanoma) | TGI (DU-145 prostate) | TGI (PC-3 prostate) | GI50 (DU-145 prostate) | GI50 (HCT-15 colon) | GI50 (MALME-3M melanoma) | GI50 (MOLT-4 leukemia) | GI50 (PC-3 prostate) | GI50 (RPMI-8226 leukemia) | GI50 (SK-MEL-2 melanoma) | GI50 (SK-MEL-28 melanoma) | GI50 (UACC-62 melanoma) | GI50 (SR leukemia) |
| --- | --- | --- | --- | --- | --- | --- | --- | --- | --- | --- | --- | --- | --- | --- | --- | --- | --- | --- | --- | --- |
| OCC1C2C=CC(O2)[C@H]1CO (stereo partly specified) | > 100 µM | > 100 µM | > 100 µM | > 100 µM | > 100 µM | > 100 µM | > 100 µM |  |  |  |  |  |  |  |  |  |  |  |  |  |
| O=C(c1ccccc1)C(c1ccccc1)C1(O)C(=O)Nc2ccc(Br)cc21 (stereo unspecified) | > 100 µM | > 100 µM | > 100 µM | 98.9 µM | > 100 µM | > 100 µM | 39.2 µM | > 100 µM |  |  |  |  |  |  |  |  |  |  |  |  |
| Nc1nc(N)c(N=Nc2ccc([As](=O)(O)O)c(O)c2)c(N)n1 | > 100 µM | > 100 µM | > 48.3 µM | > 33.8 µM | > 100 µM |  | > 100 µM | > 59.9 µM | 38.1 µM | > 100 µM |  |  |  |  |  |  |  |  |  |  |
| Cc1cc(=O)[nH]c2c1C(=O)C(=O)C=C2 | > 100 µM | 96.8 µM | > 100 µM | > 100 µM | > 100 µM |  | > 100 µM | > 100 µM | 53.9 µM | > 100 µM | 25 µM | 60.5 µM | 29.8 µM | 39.5 µM | 71 µM | 39 µM | > 100 µM | > 100 µM | 36.4 µM |  |
| CCC1(O)CC(c2ccccc2)N(C)C(c2ccccc2)C1 (stereo unspecified) | > 100 µM | > 100 µM | > 100 µM |  | > 100 µM |  | > 100 µM | > 100 µM |  |  |  |  |  |  |  |  |  |  |  |  |
| COc1ccc(/C=C\c2cc(OC)c(OC(C)=O)c(OC)c2)cc1 | 97 µM | 91.1 µM | 38.6 µM | 85.7 µM | 26.2 µM | 98.2 µM | 33.5 µM | 58.8 µM |  |  |  |  |  |  |  |  |  |  |  |  |
| OC1/C(=C/c2ccccc2)CNC/C1=C\c1ccccc1 (stereo unspecified) | > 100 µM | > 100 µM | > 100 µM | > 100 µM | > 100 µM | > 100 µM | > 100 µM |  |  |  |  |  |  |  |  |  |  |  |  |  |
| Clc1ccc2c(NCCCNCc3ccc4c(c3)OCO4)ccnc2c1 | 7.85 µM | 3.48 µM | 10.2 µM | 6.16 µM | 3.57 µM | 4.67 µM | 3.89 µM | 4.56 µM |  | 17.2 µM |  | 2.42 µM | 1.86 µM | 2.68 µM | 4.08 µM | 2.31 µM | 2.03 µM | 1.86 µM | 2.02 µM | 1.99 µM |
| NCCCCNCCCNC(=O)c1csc(-c2nc(CCN)sc2Cl)n1 | > 100 µM | > 100 µM | > 100 µM | > 100 µM | > 100 µM |  | > 100 µM |  | > 100 µM | > 100 µM |  |  |  |  |  |  |  |  |  |  |
| OC1OC2COC(c3ccccc3)OC2C(O)C1O (stereo unspecified) | > 100 µM | > 100 µM | > 100 µM | > 100 µM |  |  | > 100 µM | > 100 µM |  |  |  |  |  |  |  |  |  |  |  |  |
| Cc1ccc(Sc2cc([N+](=O)[O-])cc(Sc3ccc(C)cc3)c2Sc2ccc(C)cc2)cc1 | > 100 µM | > 100 µM | > 100 µM | > 100 µM |  |  | > 100 µM | > 100 µM |  |  |  |  |  |  |  |  |  |  |  |  |
